Test results reported in US11000601B2, “Conjugated biological molecules, pharmaceutical compositions and methods” (OBI Pharma, Inc., priority 2016, dated 2021).
Several values for one entry are separate records, joined by “and”; a condition that tells them apart may be missing. Equal entries are not always repeated. Marks after values point to notes of the source that are not given here. Square brackets hold non-standard residues; d marks the D form. Peptide text beside a SMILES is read from it. * marks the point of attachment. Dolaproine = CO[C@@H]([C@@H]1CCCN1)[C@@H](C)C(=O)O; Dil = CC[C@H](C)[C@H](NC)[C@@H](CC(=O)O)OC; X1 = C[C@@H](N*)[C@@H](O)c1ccccc1; NMeV = CN[C@H](C(=O)O)C(C)C

Assays:
[1] = tested on: NCI-H526 (ATCC CRL-5811) variant small cell lung cancer cells; assay: Xenograft tumor model of human small cell lung cancer NCI-H526 in female nu/nu mice: tumor volume, T/C, TGI; type: in vivo; settings: for Tumor Volume (mm^3), individual animal: animals No. 1-8; for Tumor Volume (mm^3), individual animal / Tumor Volume (mm^3), Mean: once weekly x 4 (10 mg/kg IV; MMAE 0.191 mg/kg IP); for Tumor Volume (mm^3), Mean: group mean; for % T/C: treatment/control x 100%, <=42% considered significant; for % TGI: vs vehicle control
Protocol: In a xenograft tumor model of human small cell lung cancer, viable NCI-H526 stage E carcinoma; variant small cell lung cancer cells (ATCC CRL-5811), were subcutaneously (SC) implanted (1×10^6 cells with matrigel (1:0.8) in 0.2 mL/mouse) into the right flank of female nu/nu mice. Tumor implanted mice were divided into five treatment groups, each group containing eight animals, and test agent administrations were initiated one day after cell implantation (denoted as Day 1).
The NCI-H526 tumor cell line was purchased from American Type Culture Collection (ATCC CRL-5811, variant small cell lung carcinoma) and cultured in Eurofins Panlabs Taiwan, Ltd. The cells were cultured in RPMI-1640 medium containing 10% fetal bovine serum (FBS) at 37° C. in 5% CO2 incubator and implanted subcutaneously in the right flank of each mouse.
Female nu/nu nude, aged 6-7 weeks, were obtained from BioLasco Taiwan (under Charles River Laboratories Licensee) and used. The animals were housed in individually ventilated cages (IVC, 36 Mini Isolator system). The allocation for 5 animals was 27×20×14 in cm. All animals were maintained in a hygienic environment under controlled temperature (20-24° C.) and humidity (30-70%) with 12-hour light/dark cycle. Free access to standard lab diet [MFG (Oriental Yeast Co., Ltd., Japan)] and autoclaved tap water were granted. All aspects of this work including housing, experimentation, and animal disposal were performed in general accordance with the “Guide for the Care and Use of Laboratory Animals: Eighth Edition” (National Academies Press, Washington, D.C., 2011) in our AAALAC-accredited laboratory animal facility. In addition, the animal care and use protocol was reviewed and approved by the IACUC at Eurofins Panlabs Taiwan, Ltd.
The tumor volumes, body weights, mortality, and signs of overt toxicity were monitored and recorded twice weekly for 45 days. Tumor growth inhibition was calculated as T/C (treatment/control)×100%. A T/C value≤42% compared to that of the vehicle control group was considered significant anti-tumor activity. Two-way ANOVA followed by Bonferroni test was used to ascertain the statistically significant significance of groups compared to respective vehicle control (*p<0.05).

[2] = Body weight, mortality and signs of overt toxicity in NCI-N87 implanted female nu/nu mice; type: in vivo, mouse
Protocol: In a xenograft tumor model of human gastric carcinoma, viable NCI-N87 (ATCC CRL-5822) cells were subcutaneously (SC) implanted (2.5×10^6 cells/mL with matrigel (1:1) at 0.2 mL/mouse) into the right flank of female nu/nu mice. Tumor implanted mice were divided into seven treatment groups, each group containing eight animals, and one group containing five animals, and dose administrations were initiated one day after cell implantation (denoted as Day 1).
Female nude (nu/nu) mice aged 5-6 weeks obtained from BioLasco Taiwan (under Charles River Laboratories Licensee) were used. The animals were housed in individually ventilated cages (IVC, 36 Mini Isolator system). The allocation for 3 animals was 27×20×14 in cm. All animals were maintained in a hygienic environment under controlled temperature (20-24° C.) and humidity (30%-70%) with 12-hour light/dark cycle. Free access to standard lab diet [MFG (Oriental Yeast Co., Ltd., Japan)] and autoclaved tap water in bottles were granted. All aspects of this work including housing, experimentation, and animal disposal were performed in general accordance with the “Guide for the Care and Use of Laboratory Animals: Eighth Edition” (National Academies Press, Washington, D.C., 2011) in our AAALAC-accredited laboratory animal facility. In addition, the animal care and use protocol was reviewed and approved by the IACUC at Eurofins Panlabs Taiwan, Ltd.
The tumor volumes, body weights, mortality, and signs of overt toxicity were monitored and recorded twice weekly for 100 days. Tumor growth inhibition was calculated as T/C (treatment/control)×100%. A T/C value≤42% compared to that of the vehicle control group was considered significant anti-tumor activity. Two-way ANOVA followed by Bonferroni test was used to ascertain the statistically significant significance of groups compared to respective vehicle control (*p<0.05).

[3] = 0.191 mg/kg × 4 IP once weekly, group mean
[4] = 0.191 mg/kg × 4 IP once weekly, individual mouse

CC[C@H](C)[C@@H]([C@@H](CC(=O)N1CCC[C@H]1[C@H](OC)[C@@H](C)C(=O)N[C@H](C)[C@@H](O)c1ccccc1)OC)N(C)C(=O)[C@@H](NC(=O)[C@@H](NC)C(C)C)C(C)C [MMAE, monomethyl auristatin E] (H-[NMeV]V[Dil][Dolaproine]-X1)
maximum percent TGI ([1]; 0.191 mg/kg IP weekly, Day 18): 55% | anti-tumor activity (in words) ([1]; 0.191 mg/kg IP weekly, over the course of the study): moderate anti-tumor activity | Tumor Volume (mm^3), individual animal ([1]; Day 1): 75 mm^3 and 108 mm^3 and 81 mm^3 and 83 mm^3 and 99 mm^3 and 60 mm^3 and 68 mm^3 and 91 mm^3 | Tumor Volume (mm^3), Mean ([1]; Day 1): 83 mm^3 | % T/C ([1]; Day 1): 108% | Tumor Volume (mm^3), individual animal ([1]; Day 4): 80 mm^3 (2×) and 127 mm^3 and 101 mm^3 and 88 mm^3 and 115 mm^3 and 85 mm^3 and 108 mm^3 | Tumor Volume (mm^3), Mean ([1]; Day 4): 98 mm^3 | % T/C ([1]; Day 4): 120% | % TGI ([1]; Day 4): −20% | Tumor Volume (mm^3), individual animal ([1]; Day 8): 94 mm^3 (2×) and 74 mm^3 (2×) and 83 mm^3 and 70 mm^3 and 82 mm^3 and 121 mm^3 | Tumor Volume (mm^3), Mean ([1]; Day 8): 87 mm^3 | % T/C ([1]; Day 8): 97% | % TGI ([1]; Day 8): 3% | Tumor Volume (mm^3), individual animal ([1]; Day 11): 74 mm^3 and 86 mm^3 and 89 mm^3 and 104 mm^3 and 121 mm^3 and 67 mm^3 and 77 mm^3 and 79 mm^3 | Tumor Volume (mm^3), Mean ([1]; Day 11): 87 mm^3 | % T/C ([1]; Day 11): 68% | % TGI ([1]; Day 11): 32% | Tumor Volume (mm^3), individual animal ([1]; Day 15): 82 mm^3 and 133 mm^3 and 137 mm^3 and 101 mm^3 and 144 mm^3 and 89 mm^3 and 172 mm^3 and 123 mm^3 | Tumor Volume (mm^3), Mean ([1]; Day 15): 123 mm^3 | % T/C ([1]; Day 15): 71% | % TGI ([1]; Day 15): 29% | Tumor Volume (mm^3), individual animal ([1]; Day 18): 80 mm^3 and 199 mm^3 and 246 mm^3 and 169 mm^3 and 187 mm^3 and 101 mm^3 and 281 mm^3 and 202 mm^3 | Tumor Volume (mm^3), Mean ([1]; Day 18): 183 mm^3 | % T/C ([1]; Day 18): 45% | % TGI ([1]; Day 18): 55% | Tumor Volume (mm^3), individual animal ([1]; Day 22): 74 mm^3 and 618 mm^3 and 530 mm^3 and 337 mm^3 and 317 mm^3 and 152 mm^3 and 621 mm^3 and 401 mm^3 | Tumor Volume (mm^3), Mean ([1]; Day 22): 381 mm^3 | % T/C ([1]; Day 22): 52% | % TGI ([1]; Day 22): 48% | Tumor Volume (mm^3), individual animal ([1]; Day 25): 70 mm^3 and 1163 mm^3 and 1095 mm^3 and 483 mm^3 and 525 mm^3 and 249 mm^3 and 1078 mm^3 and 535 mm^3 | Tumor Volume (mm^3), Mean ([1]; Day 25): 650* mm^3 | % T/C ([1]; Day 25): 58% | % TGI ([1]; Day 25): 42% | Tumor Volume (mm^3), individual animal ([1]; Day 29): 90 mm^3 and 1756 mm^3 and 1410 mm^3 and 853 mm^3 and 522 mm^3 and 431 mm^3 and 1313 mm^3 and 845 mm^3 | Tumor Volume (mm^3), Mean ([1]; Day 29): 903* mm^3 | % T/C ([1]; Day 29): 48% | % TGI ([1]; Day 29): 52% | Tumor Volume (mm^3), individual animal ([1]; Day 31): 173 mm^3 and 1901 mm^3 and 1682 mm^3 and 1172 mm^3 and 657 mm^3 and 550 mm^3 and 1595 mm^3 and 1044 mm^3 | Tumor Volume (mm^3), Mean ([1]; Day 31): 1097* mm^3 | % T/C ([1]; Day 31): 48% | % TGI ([1]; Day 31): 52% | Tumor Volume (mm^3), individual animal ([1]; Day 36): 126 mm^3 and 3047 mm^3 and 2480 mm^3 and 2090 mm^3 and 759 mm^3 and 1032 mm^3 and 2538 mm^3 and 1318 mm^3 | Tumor Volume (mm^3), Mean ([1]; Day 36): 1674 mm^3 | Tumor Volume (mm^3), individual animal ([1]; Day 39): 56 mm^3 and 4380 mm^3 and 2713 mm^3 and 2836 mm^3 and 841 mm^3 and 1304 mm^3 and 3040 mm^3 and 1339 mm^3 | Tumor Volume (mm^3), Mean ([1]; Day 39): 2064 mm^3 | Mortality (animal entered as died in tumor volume table) ([2]; 0.191 mg/kg × 4 IP (Once weekly), mouse No. 6, Day 57-Day 100): died | Body Weight Day 1, Mean [2, 3]: 21.9 g | Body Weight Day 4, Mean [2, 3]: 20.4 g | Body Weight Day 8, Mean [2, 3]: 22.1 g | Body Weight Day 11, Mean [2, 3]: 22.6 g | Body Weight Day 15, Mean [2, 3]: 23.4 g | Body Weight Day 18, Mean [2, 3]: 23.6 g | Body Weight Day 25, Mean [2, 3]: 24.0 g | Body Weight Day 32, Mean [2, 3]: 25.1 g | Body Weight Day 36, Mean [2, 3]: 25.1 g | Body Weight Day 50, Mean [2, 3]: 26.0 g | Body Weight Day 1 [2, 4]: 20 g (2×) and 22 g (3×) and 24 g (2×) and 21 g | Body Weight Day 4 [2, 4]: 18 g and 19 g (2×) and 22 g and 21 g and 20 g and died and 24 g | Body Weight Day 8 [2, 4]: 22 g (3×) and 23 g (2×) and died and 24 g and 19 g | Body Weight Day 11 [2, 4]: 22 g (2×) and 23 g (2×) and 25 g and 24 g and died and 19 g | Body Weight Day 15 [2, 4]: 24 g (2×) and 23 g (3×) and 25 g and died and 22 g | Body Weight Day 18 [2, 4]: 24 g (3×) and 22 g (2×) and 23 g and 26 g and died | Body Weight Day 22 [2, 4]: 24 g (3×) and 22 g and 25 g (3×) and died | Body Weight Day 25 [2, 4]: 24 g (4×) and 22 g and 25 g (2×) and died | Body Weight Day 29 [2, 4]: 25 g (3×) and 24 g and 26 g (3×) and died | Body Weight Day 32 [2, 4]: 25 g (2×) and 23 g and 24 g and 27 g and 26 g (2×) and died | Body Weight Day 36 [2, 4]: 26 g (2×) and 24 g and 25 g (4×) and died | Body Weight Day 39 [2, 4]: 26 g (6×) and 24 g and died | Body Weight Day 43 [2, 4]: 26 g (6×) and 24 g and died | Body Weight Day 46 [2, 4]: 26 g (3×) and 25 g and 27 g (3×) and died | Body Weight Day 50 [2, 4]: 26 g (4×) and 24 g and 27 g (2×) and died | Body Weight Day 53 [2, 4]: 27 g (4×) and 24 g and died and 26 g and 28 g | Mortality (animal recorded as died in tumor volume table) ([2]; animal No. 6, Day 4-Day 25, 0.191 mg/kg × 4 IP once weekly): died
